We go through seven sequences from US20230203130A1, “A PEPTIDE COCKTAIL” (Hubro Therapeutics AS, priority 2020, published 2023).

Like-named read-outs stand apart in the source and are kept apart here. Where no end group is shown, it is not given here.

Data set [1] is classed as physicochemical. The procedure: The peptide was difficult to dissolve and it was attempted to dissolve the crude fsp5 (SEQ ID NO: 19) (˜150 mg) in approximately 4 ml 50% MeCN in water under gentle heating.
Another batch of fsp5 (SEQ ID NO: 19) was prepared, dissolved in neat DMSO under gentle heating and purified by preparative HPLC. Again, only very small amounts of purified fsp5 (SEQ ID NO: 19) were obtained.

Data set [2] relates to T cells (PBMC) from healthy donors. As to the kind of experiment: T-cell proliferation (3H-thymidine, SI) after in vitro stimulation of PBMC with cocktail fsp2+fsp4 (Example 4). Type of data set: cell-based, human. On the set-up: T cell proliferation (stimulation index, SI): immunogenicity: dose or concentration left out as unconfirmed. The procedure: Fresh buffy coats from four healthy donors were obtained from a blood bank.
Peripheral blood mononuclear cells (PBMC) isolated from fresh buffy coats from four healthy donors were counted and suspended in DC medium to 15*10^6 cells/ml, and subsequently diluted with DC-medium to 4*10^6 cells/ml (Table 6).
Four 24-well plates were used for each donor, with 4*10^6 cells per well (each well has a volume of 1 ml).
Peptide cocktail: Solution of peptides fsp2+fsp4, containing […] of each peptide. 40 μl peptide solution was added to each well.
The plates were incubated in a cell incubator for 14 days (37° C., 5% CO2). IL-2 and IL-7 were added on day 3. The cells were inspected daily.
Test peptides: fsp2+fsp4 (SEQ ID NOs: 21 and 23), fsp1 (SEQ ID NO: 20), fsp2 (SEQ ID NO: 21), fsp3 (SEQ ID NO: 22), fsp4 (SEQ ID NO: 23), fsp5 (SEQ ID NO: 19).
Negative controls: T cells, T cells+APC (without addition of test peptides)
Cells and reagents were added to plate wells (in triplicate) as described in Tables 8 and 9 below. The total volume added to each well was 0.20 ml. • T cells (PBMC): 50 000 cells/well (0.25*10^6 cells/ml) • APC: Irradiated (30 Gy, 8 minutes) autologous feeder cells: 50 000 cells/well • (fspx): 0.2 nmol peptide/well (each peptide), concentration: […] peptide. (fsp was dissolved in DMSO before dilution to correct concentration)
The plates were incubated in a cell incubator for 48 hours (37° C., 5% CO2).
After incubation for 48 hours, 20 μl 3H-tThymidine solution (5 Ci/ml) was added to each well and the plates were incubated for approximately 17 hours (37° C., 5% CO2).
After 17 hours the cells were harvested (Unifilters) and dried on the filters at 45° C. until completely dry. After covering the bottom of the Unifilters with adhesive covers (delivered with the Unifilters) 25 μl micro scintillation liquid was added to each well, the plate was covered with TopSeal and 3H-Thymidine uptake was measured as counts per minute (CPM) using a microplate scintillation counter.
The T cell proliferation results after the first round of in vitro stimulation with the cocktail of fsp2 and fsp4 peptides are presented as stimulation index (SI) in FIG. 10. SI=mean CPM (triplicates) of (T cells+APC+test peptide(s)) divided by mean CPM (triplicates) of (T cells+APC). SI>1 indicates an increase in T-cell proliferation and SI 2 is a clear sign of immunogenicity.
PBMCs harvested after the first in vitro stimulation were re-stimulated in vitro according to the protocol set out above, with 2×10^6 cells per well. T-cell proliferation was tested according to the protocol set out above.

The format of data set [3] is physicochemical. The procedure: A batch of fsp5 (SEQ ID NO: 19) was prepared by solid phase peptide synthesis (SPPS) by using FMOC chemistry and Prelude synthesizer (Gyros Protein Technologies Inc., USA). The crude peptide was analysed by UPLC and MS. […] UPLC system: Column; Acquity UPLC BEH C18 […], detection; PDA 210-500 nm, solvent A); 0.1% TFA in water, solvent B; 0.1% TFA in MeCN, gradient: 20-70% B (2-10 minutes, linear).
When the purity of the small amount of purified fsp5 (SEQ ID NO: 19) was reassessed by UPLC after lyophilisation, the purity had dropped from around 90% to below 50% as shown in FIG. 4.
This is another data set of the same source.

Data set [4] has as its system T-cells from PMBCs of healthy donors. As to the kind of experiment: T-cell proliferation after stimulation of PMBCs with mixture fsp17, fsp15 and fsp16 (Example 9). Type of data set: cell-based, human. The procedure: Using a similar procedure to that used in Examples 4 and 7 above, PMBCs from four healthy donors were stimulated in vitro with a peptide mixture containing equimolar amounts (10 uM) of fsp17 (SEQ ID NO: 126), fsp15 (SEQ ID NO: 127) and fsp16 (SEQ ID NO: 128), which are shown in Table 15, below. These peptides have the non-chiral amino acid glycine at their C-terminal, which can serve as a linker for conjugation of the peptides to other molecules. It is expected that this C-terminal glycine will not create any new T-cell epitopes which will change the specificity of the induced T-cells.
After one round (14 days) of in vitro stimulation, T-cells were harvested and tested for recognition of the peptide mixture or individual peptides, using a concentration of 10 μM of each peptide. T-cell proliferation was measured as counts per minute (CPM) after uptake of ^3H-thymidine in a standard T cell proliferation assay.
The PMBCs from the four healthy donors underwent a second round of in vitro stimulation, and T-cells were again harvested and tested for proliferation against the peptide mixture and the individual peptides.

Data set [5] relates to colorectal cancer cell line HCT116. Particulars: Linnebacher et al.; HCT116 carries the corresponding frameshift mutation; cited from earlier work.
The test system of the next data set is T cells. Particulars: cited from earlier work.
Data set [6] has as its system T-cells from PMBCs of healthy donors. Description: T-cell proliferation after stimulation of PMBCs with mixture fsp10, fsp11 and fsp13 (Example 8). The class given is cell-based, human. Conditions: FIG. 19; for T-cell response (proliferation, CPM): donor 1, one round of in vitro stimulation (14 days), 10 μM. The method, then:
Using a similar procedure to that used in Examples 4 and 7 above, PMBCs from four healthy donors were stimulated in vitro with a peptide mixture containing equimolar amounts (10 uM) of fsp10 (SEQ ID NO: 28), fsp11 (SEQ ID NO: 29) and fsp13 (SEQ ID NO: 31).
After one round of stimulation (14 days), T-cells were harvested and tested for recognition of the peptide mixture, using single peptide concentrations of 10 μM. T-cell proliferation was measured as counts per minute (CPM) after uptake of ^3H-thymidine in a standard T cell proliferation assay.
The PMBCs from the four healthy donors underwent a second round of in vitro stimulation, and T-cells were again harvested and tested for proliferation against the peptide mixture and the individual peptides. […] While it has, in the past, been considered that a SI value of greater than 2 is the criterion for indicating a T-cell response in a T-cell proliferation assay, this is only the case in subjects who have been vaccinated prior to the T-cell proliferation assay. Where a healthy subject has not been vaccinated before the T-cell proliferation assay (as in the present T-cell proliferation assay), it is not expected that a SI value of 2 or greater will be achieved. Therefore, in non-vaccinated, healthy subjects, an increase in the SI value above 1 is indicative of a T-cell response.

Setting [7] is: second round of in vitro stimulation, FIG. 22.

For the sequence “KCIMKEKKSLVRLSSCVPVALMSAMTTSSSQKN (listed as Homo sapiens) [fsp5, optimised consensus peptide of TGFβR2]”, in data set [1], the “effect of adding water to DMSO solution” value is on record as “precipitation of the peptide” and the solubility result is listed as “no clear solution could be obtained”. In addition, the relative immunogenicity entry in data set [2] (FIGS. 10 and 11, compared with fsp3 and fsp4) is recorded as “more immunogenic than peptides which do not comprise amino acids from the wild-type sequence of TGFβR2”. The “T cell proliferation (stimulation index, SI): immunogenicity” value in data set [2] (first and second round of in vitro stimulation with cocktail of fsp2 and fsp4, four healthy donors, FIGS. 10-12) is “stimulated T-cells induced from PMBCs”. Further, the “purity by UPLC after lyophilisation (stability)” value in data set [3] is recorded as “below 50%”.

With “KKKGRRNRIPAVLRTEGEPLHTPSVGMRETG (listed as Homo sapiens) [fsp15, peptide of −1a frameshifted ASTE1]”, the “T-cell induction (proliferation)” value in data set [4] (one round (14 days) of in vitro stimulation, 10 μM, FIG. 21) is recorded as “T-cells are induced”; in data set [4] (setting [7]), “T-cells were induced”.

As for “RLSSCVPVA (listed as Homo sapiens) [p573, prior art peptide of mutTGFβR2]”, the “lysis of colorectal cancer cell line HCT116” value in data set [5] is on record as “able to lyse the colorectal cancer cell line HCT116”. In addition, the immunogenicity result in the data set on T cells (EP1078000 FIG. 14, four rounds of stimulation of the T-cells) is reported as “not immunogenic”; with T cells (Linnebacher et al., FIG. 1), “immunogenic”; in the data set on T cells (Saeterdal et al., 2001, Cancer Immunol Immunother) it was “immunogenic”. In addition, the “activating specific CTLs” value in the data set with T cells (Linnebacher et al., HLA-A2.1 restricted, in vitro) was “capable of activating specific CTLs”. Moreover, the “generation of CTL line and CTL clones” value with T cells (Saeterdal et al., Cancer Immunol Immunother 2001) was “able to generate a CTL line and several CTL clones”.

Take “SCPLRDLQTLWPILALISMSSIWGTMFS (listed as Homo sapiens) [fsp11, peptide of −1a frameshifted SLC22A9]”: the “T-cell response (proliferation, CPM)” value in data set [6] was “induced T-cell responses”. Besides, the “induction of T-cells relative to mixture of fsp11 and fsp13” value in data set [6] (donor 1, one round) is listed as “greater induction of T-cells than the mixture of fsp11”.

“STCPTYVKGSPSCPLRDLQ (listed as Homo sapiens) [fsp13, peptide of −1a frameshifted SLC22A9]”: the “T-cell response (proliferation, CPM)” value in data set [6] is listed as “did not stimulate T-cells”.

On to “KGIMKEKKSLVRLSSCVPVALMSAMTG (not fully specified) [fsp17, modified peptide of −1a frameshifted TGFβR2]”, for which the “T-cell induction (proliferation)” value in data set [4] (setting [7]) is listed as “T-cells were induced”.

For the sequence “KKTLRNHLFLIRWIILTFLQKILK (listed as Homo sapiens) [fsp10, peptide of −1a frameshifted KIAA2018]”, the “T-cell response (proliferation, CPM)” value in data set [6] is recorded as “did not stimulate T-cells”.
